Laboratory results reported in patent EP4670719A1, “PHARMACEUTICAL COMPOSITION OF BENZO NITROGEN HETEROAROMATIC RING DERIVATIVE AND USE THEREOF IN MEDICINE” (Haisco Pharmaceutical Group Co., Ltd., priority 2023, dated 2024).

Key:
[1] = i.g. (10 mg/kg)
[2] = tested on: complement alternative pathway; test: Test of inhibitory effect on the complement alternative pathway (IBL alternative pathway kit, LPS-coated plate); format: biochemical, healthy volunteers; conditions: inhibiting the alternative pathway; diluted serum, 30 min pretreatment, 1 h at 37°C
Experimental: The inhibitory effect of the compounds on the complement alternative pathway was detected using the IBL alternative pathway kit (COMPL AP330 RUO). Serum from healthy volunteers was collected and 1 portion was diluted with a buffer of 20 mM EDTA in gelatin (0.15 mM CaCl2, 141 mM NaCl, 4.5 mM MgCl2, 4.2 mM HEPES, and 0.1% gelatin at pH 7.4) to 50% (v/v), and 1 portion was diluted to 50% (v/v) with a buffer of 20 mM EGTA in gelatin. The compounds were prepared in DMSO to a working solution 100 times the final concentration. Before use, 50% of the above serum was diluted 1/18 with an AP diluent in the kit. 1 part of the compound working solution (v/v) or DMSO (positive control PC) was added to 99 parts of the diluted serum containing EGTA for pretreatment for 30 min, and 1 part of DMSO (v/v) was added to 99 parts of the diluted serum containing EDTA, as negative control (NC). The serum pretreated with the above compounds (or DMSO) was added at […] to an LPS-coated 96-well plate and incubated at 37°C for 1 h, and the plate was washed 3 times with washing solution in the kit, and the conjugated chromogenic substrate was added according to the instruction in the kit, and the absorbance was read at 405 nm with a microplate reader. The inhibitory activity of the compounds on alternative pathway was calculated using the following formula. […]

| SMILES | AUC0-24 h ([1]; rat plasma) [ng·h/mL] | Cmax ([1]; rat plasma) [ng/mL] | T1/2 ([1]; rat plasma) [h] | Tmax ([1]; rat plasma) [h] | F% ([1]; rats) [%] | IC50 [2] [nM] |
| --- | --- | --- | --- | --- | --- | --- |
| CCO[C@H]1CCN(Cc2c(OC)cc(C)c3[nH]ccc23)[C@H](c2ccc(C(=O)O)cc2)C1 [LNP023] | 9867 | 867 | 3.39 | 3.5 | 49 | – |
| [2H]C([2H])([2H])Oc1cc(C)c2[nH]ccc2c1CN1CC[C@@H](C2CC2)C[C@H]1c1ccc(C(=O)O)cc1 [Trifluoroacetate of compound 1] | – | – | – | – | – | < 200 |
| COc1cc(C)c2[nH]ccc2c1CN1CC[C@@H](C2CC2)C[C@H]1c1ccc(C(=O)O)cc1 [Trifluoroacetate of compound 2] | – | – | – | – | – | < 200 |
